Experiments:
[1] = test system: Trx-ASK1 complex in KG-1a CD34+ cells; test: Trx1 immunoprecipitation, Trx-ASK1 interaction; type: cell-based, human; settings: 0.5, 2.0, 5.0 μM
Description: The KG-1a CD34^+ cells were treated with PepE or vehicle control (DMSO) for 12 h. The cellular proteins were extracted by RIPA buffer and quantified by the Bradford method. For each cell lysate, a volume containing 1 mg protein was mixed with 1 μg anti-Trx1 antibody coupled to 20 μL protein G-Sepharose (Abcam) and tumbled at 4 °C for 2 h. The Sepharose beads were then washed three times at 4 °C with a washing buffer containing 50 mM Tris (pH = 7.4), 0.5 M NaCl, and 1 mM EGTA. The immunoprecipitated proteins were eluted and denatured by 2×SDS-PAGE loading buffer and then boiled for 5 min. The eluted solutions were then centrifuged at 12000 g; the supernatants were collected and stored at −20 °C for SDS-PAGE and western blot analyses.

[2] = target: T1, TrxR1 without Sec498 residue (TrxR1 nSec) (Homo sapiens, UniProt Q16881); test: In vitro TrxR1 activity assay (DTNB reduction), Sec-missing enzyme; type: biochemical; settings: Sec-missing enzyme 0.1 μM
T1 construct: protein fragment, without selenocysteine residue; purchased Abcam ab168011
T1 sequence (Q16881 1-497 isoform Q16881-5): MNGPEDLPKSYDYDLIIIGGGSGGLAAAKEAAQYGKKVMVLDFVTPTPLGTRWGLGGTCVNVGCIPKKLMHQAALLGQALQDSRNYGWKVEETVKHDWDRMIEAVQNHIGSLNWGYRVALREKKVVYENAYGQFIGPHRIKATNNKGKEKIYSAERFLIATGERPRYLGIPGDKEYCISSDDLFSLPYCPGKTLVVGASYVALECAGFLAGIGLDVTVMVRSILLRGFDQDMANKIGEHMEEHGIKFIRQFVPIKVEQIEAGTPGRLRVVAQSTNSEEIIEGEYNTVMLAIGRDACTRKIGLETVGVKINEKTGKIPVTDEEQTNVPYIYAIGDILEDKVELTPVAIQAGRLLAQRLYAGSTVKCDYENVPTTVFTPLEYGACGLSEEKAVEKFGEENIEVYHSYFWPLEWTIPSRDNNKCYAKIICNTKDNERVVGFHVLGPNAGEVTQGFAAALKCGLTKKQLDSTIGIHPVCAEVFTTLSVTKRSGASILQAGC
Description: The in vitro TrxR1 activity assay was performed using the DTNB reduction assay. Briefly, 0.1 μM recombinant human TrxR1 or TrxR1 without Sec498 residue (TrxR1 nSec) protein was reduced with 100 μM NADPH in assay buffer (50 mM Tris-HCl, 1 mM EDTA, pH = 7.5) for 30 min at room temperature. The reduced proteins was then treated with the indicated concentrations of PepE (final concentrations of 0.25, 0.5, 1, 2, 4, 6 μM), respectively, and incubated for 1 h at 37 °C. A mixture of assay buffer solution (50 mM Tris-HCl, 1 mM EDTA, pH = 7.5) containing DTNB and NADPH was added then added, making the final concentrations of DTNB and NADPH 2 mM and 200 μM, respectively. The absorbance was monitored at 412 nm using the SpectraMax i3x microplate reader (Molecular Devices). The linear increase of absorbance during the initial 3 min was recorded for calculating the relative enzyme activity. The same amount of DMSO was added to the control experiments and the activity is expressed as the percentage of the control.

GSS = target: T2, GSS (Homo sapiens, UniProt P48637); test: BLI binding assay, GSS
T2 construct: purchased Abcam
T2 sequence (P48637 1-474): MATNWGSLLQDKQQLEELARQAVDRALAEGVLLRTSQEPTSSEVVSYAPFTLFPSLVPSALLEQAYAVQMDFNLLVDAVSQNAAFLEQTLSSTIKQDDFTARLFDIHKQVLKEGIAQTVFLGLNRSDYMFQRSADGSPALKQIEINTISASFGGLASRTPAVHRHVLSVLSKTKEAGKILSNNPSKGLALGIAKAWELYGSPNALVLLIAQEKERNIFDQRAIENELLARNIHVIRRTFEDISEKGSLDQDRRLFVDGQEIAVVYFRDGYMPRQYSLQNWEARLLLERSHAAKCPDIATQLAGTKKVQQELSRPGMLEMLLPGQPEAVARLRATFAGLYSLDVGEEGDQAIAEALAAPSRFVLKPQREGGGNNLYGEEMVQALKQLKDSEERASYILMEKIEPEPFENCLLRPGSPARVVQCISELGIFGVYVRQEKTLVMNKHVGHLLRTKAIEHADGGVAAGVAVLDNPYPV
Description: The binding kinetics of PepE or PepA to purified recombinant proteins were determined using BLI on an Octet RED 96 system (ForteBio, Shanghai, China) following the manufacturer's protocol. All interaction analyses were performed at 25 °C in PBS with 0.2% DMSO. Purified recombinant proteins (0.9 μM, the TrxR1 full length and TrxR1 protein fragment were pre-reduced by 400 μM of NADPH before test) were pre-labeled with biotin using […] (Abcam) following the manufacturer's instruction. Loading of the Dip and Read Super Streptavidin (SSA) Biosensors (ForteBio) were conducted by exposing biotinylated proteins to biosensor tips for 2 h. The 96-well microplates used in the Octet were filled with 200 μL sample or buffer per well and agitated at 1000 rpm. The loaded biosensors were washed in buffer for 600 s and transferred to wells containing PepE at concentrations of 0.625, 1.25, 2.5, 5, and 10 μM or PepA at concentrations of 1.25, 2.5, 5, 10 and 20 μM, respectively, in the buffer. […] Reference measurements were conducted using the buffer instead of PepE (or PepA). A parallel set of SA unloaded biosensors was prepared to act as a control. The sample-sensorgrams were corrected by subtracting the double reference curve. Kinetic parameters (Kon and Kdis) and affinity (KD) were determined from a global fit to a 1:1 binding model of the data between proteins and PepE using Octet software (ForteBio).

[3] = test system: NBM CD34+ (including hBMSCs) cells; test: Release study of DMAPE in vitro, NBM CD34+ cells (UFLC-MS/MS); type: in vitro ADME, human; settings: 10 μM DMAPE, 24 h
Description: 1 × 10^5 cells (including sorted CD34^+ KG-1a cells and NBM cells) were seeded at 48-well plates (Corning, New York, USA) in the IMDM-based serum-free media for 1 h. The cells were then incubated with 10 μM DMAPE at 37 °C in the 5% CO2 incubator for 0, 12 or 24 h. The culture supernatant was collected by centrifugation at 3000 rpm for 10 min and evaporated to dryness at 30 °C using a CentriVap vacuum centrifugal concentrator. The resulting residue was reconstituted in 100 μL methanol, vortexed and centrifuged at 12000 rpm for 10 min. A 2 μL aliquot of the supernatant was injected for UFLC-MS/MS analysis (UFLC-MS/MS analysis method same as the pharmacokinetic study of DMAPE, see Additional method in Supplementary Materials).

IC50 [2] [µM] | Kd (GSS) [µM] | kon (GSS) [M⁻¹ s⁻¹] | koff (GSS; read-out: Kdis) [s⁻¹] | DMAPE remained in the culture media [3] | Structure (SMILES) | amount of ASK1 bound to Trx1 [1]
> 8 | 272 | 2740 | 0.745 | – | C=C1C(=O)OC[C@H]1C(c1cc(OC)c2c(c1)OCO2)c1cc(OC)c2c(c1)OCO2 [PepE, Peperomin E] | dose-dependent decrease
– | – | – | – | about half | COc1cc(C(c2cc(OC)c3c(c2)OCO3)[C@@H]2COC(=O)[C@H]2CN(C)CCO)cc2c1OCO2 [DMAPE, (2S,3S)-6-Methyl (hydroxyethyl) amino-2,6-dihydropeperomin E] | –
